Experimental data as given in patent US12686676B2, “Compound, endothelin-A receptor antagonist, and pharmaceutical composition” (Alchemedicine, Inc., priority 2021, dated 2026).

Legend:
[1] = Metabolic stability in mouse liver microsome; format: in vitro ADME; conditions: after 30 minutes with NADPH; note: tested at 0.99 µM
Experimental: (§1) 971.5 μL of the potassium phosphate buffer solution and 27.5 μL of the human liver microsome were placed in a propylene tube and suspended. 1 μL of the test compound was added thereto, and a 180 μL aliquot of this mixture was transferred to a fresh tube. The mixture was preincubated at 37° C. for 5 minutes. Then, 20 μL of the NADPH solution (for an incubation time of 30 minutes) or 20 μL of the potassium phosphate buffer solution (for an incubation time of 0 minutes) was added thereto. After incubation, the reaction was terminated by the addition of 200 μL of the quenching solution. Subsequently, the tube was centrifuged at 3220×g for 20 minutes, and the concentration of an unchanged form of the test compound in […] of a supernatant was measured by LC-MS/MS. On the basis of the obtained peak area of the unchanged form, the residual rate (%) of the unchanged form was calculated using the rate of 0 minutes of incubation time as 100%.
The metabolic stability in a mouse liver microsome was evaluated by the same method as above except that the mouse liver microsome was used instead of the human liver microsome.

[2] = Metabolic stability in human liver microsome; format: in vitro ADME; conditions: after 30 minutes with NADPH; note: tested at 0.99 µM
Experimental: The metabolic stability in a human liver microsome was evaluated by the following method.
• (1) Human liver microsome: 20 mg/mL • (2) Test compound: 1.1 mM solution in DMSO • (3) Potassium phosphate buffer solution: 66.7 mM (pH 7.4) • (4) NADPH solution: 10 mM in a potassium phosphate buffer solution • (5) Quenching solution: 0.5% formic acid solution in acetonitrile containing warfarin as an internal standard 2. Method
as §1

[3] = target: T1, human endothelin B receptor (Homo sapiens, UniProt P24530); assay: Endothelin B receptor inhibitory effect (aequorin light emission, endothelin at EC80); format: cell-based; conditions: for IC50: CHO-K1-mt aequorin cells expressing human endothelin B receptor, endothelin at EC80, read-out: ETB receptor inhibitory effect
T1 construct: expressed in transfected cells; host or cells: CHO-K1-mt aequorin cells
T1 sequence (P24530 27-442): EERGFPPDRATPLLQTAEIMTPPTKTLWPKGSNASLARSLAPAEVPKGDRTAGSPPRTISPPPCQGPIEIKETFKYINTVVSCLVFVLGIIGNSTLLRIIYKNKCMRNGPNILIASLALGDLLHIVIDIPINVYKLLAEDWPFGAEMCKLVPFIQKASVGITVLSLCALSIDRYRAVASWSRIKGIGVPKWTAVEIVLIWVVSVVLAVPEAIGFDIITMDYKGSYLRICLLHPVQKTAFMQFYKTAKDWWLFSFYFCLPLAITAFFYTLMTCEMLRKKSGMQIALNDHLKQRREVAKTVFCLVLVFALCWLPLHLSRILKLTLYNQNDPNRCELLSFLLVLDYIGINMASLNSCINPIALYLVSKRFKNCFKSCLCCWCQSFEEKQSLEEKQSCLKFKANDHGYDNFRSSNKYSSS
Experimental: The inhibitory effect on an endothelin B receptor was studied by the following method.
CHO-K1-mt aequorin cells forced to express a human endothelin B receptor (Accession Number NP_000106.1) were cultured in an antibiotic-free medium for 18 hours, then treated with PBS-EDTA (5 mM EDTA), centrifuged (2 min, 405×g, room temperature), and then suspended in an assay buffer (DMEM/HAM's F12 with HEPES+0.1% BSA protease free).
1×10^6 cells/mL of the cells were incubated at room temperature for 4 hours in the presence of coelenterazine h (Molecular Probes, Inc.) (final concentration: 5 µM). Agonistic reaction based on endothelin was confirmed to determine an endothelin concentration corresponding to EC80.
Subsequently, 50 µL (10000 cells/well) of the cell suspension treated with coelenterazine h and 50 µL of an assay buffer containing a test substance (final concentration: 0.5% in DMSO) were added to each well of a 96-well plate. 15 minutes later, endothelin was added such that its final concentration was an EC80 concentration. Receptor activity was measured as the quantity of light emission in FDSS6000 (Hamamatsu Photonics K.K.).

[4] = tested on: BigET-1-induced blood pressure; assay: BigET-1-induced blood pressure evaluation test; format: in vivo, Wistar rat; conditions: 30 mg/kg into the duodenum 1 hour before BigET-1 (20 μg/kg); Mean ± SD, N = 6
Experimental: Each 8- to 20-week-old male Wistar rat was subjected to tracheal catheter treatment for airway management, carotid catheter treatment for blood pressure measurement, femoral venous catheter treatment for BigET-1 administration, and duodenal catheter treatment for test substance administration under analgetic treatment and urethane anesthesia. After confirmation that the blood pressure and the heart rate became stable, a vehicle (0.5% methylcellulose 400 solution) or 30 mg/kg (5 ml/kg) of a test substance adjusted with a vehicle was administered into the duodenum. One hour thereafter, BigET-1 (20 μg/kg) was administered thereto, and the blood pressure was monitored until 60 minutes after BigET-1 administration. The test was conducted at n=6 per group. In analysis, systolic blood pressure and diastolic blood pressure were determined for 20 seconds every 5 minutes from 5 minutes before BigET-1 administration to 60 minutes after BigET-1 administration, and AUC0-60 min (mmHg*min) for 60 minutes after BigET-1 administration was calculated using a delta value from the value obtained 5 minutes before BigET-1 administration. The Student's t test was used for the comparison of AUC between the vehicle administration group and the test substance administration group.

Row | Structure (SMILES) | Metabolic stability (mouse), residual rate of the unchanged form [1] [%] | Metabolic stability (human), residual rate of the unchanged form [2] [%] | IC50 [3] [µM] | Diastolic blood pressure delta AUC0-60 min [4] [mmHg*min] | Systolic blood pressure delta AUC0-60 min [4] [mmHg*min] | inhibition at 5 µM ([3]; at 5000 nM, read-out: ETB receptor inhibitory effect, % inhibition) [%]
1 | Cc1cc2c(cc1C#Cc1ncccc1S(=O)(=O)Nc1noc(C)c1C)C(=O)OC2 [Example 4, N-(4,5-Dimethylisoxazol-3-yl)-2-((6-methyl-3-oxo-1,3-dihydroisobenzofuran-5-yl)ethynyl)pyridine-3-sulfonamide] | 91 | 49 | > 5 |  |  | 
2 | Cc1onc(NS(=O)(=O)c2cccnc2C#Cc2cc3c(cc2Cl)COC3)c1C [Example 6, 2-((6-Chloro-1,3-dihydroisobenzofuran-5-yl)ethynyl)-N-(4,5-dimethylisoxazol-3-yl)pyridine-3-sulfonamide] | 54 | 56 | > 5 |  |  | 
3 | Cc1cc2c(cc1C#Cc1ncccc1S(=O)(=O)Nc1noc(C)c1C)C(C)(C)OC2 [Example 1, N-(4,5-Dimethylisoxazol-3-yl)-2-((3,3,6-trimethyl-1,3-dihydroisobenzofuran-5-yl)ethynyl)pyridine-3-sulfonamide] | 85 | 59 | > 5 | 278 ± 539 | 83 ± 508 | 
4 | COc1nc(C)cnc1NS(=O)(=O)c1cccnc1C#Cc1cc2c(cc1C)COC2(C)C [Example 10, N-(3-Methoxy-5-methylpyrazin-2-yl)-2-((3,3,6-trimethyl-1,3-dihydroisobenzofuran-5-yl)ethynyl)pyridine-3-sulfonamide] | 68 | 66 | > 5 |  |  | 
5 | Cc1onc(NS(=O)(=O)c2cccnc2C#Cc2ccc3c(c2)COC3)c1C [Example 5, 2-((1,3-Dihydroisobenzofuran-5-yl)ethynyl)-N-(4,5-dimethylisoxazol-3-yl)pyridine-3-sulfonamide] | 90 | 63 | > 5 |  |  | 
6 | Cc1cc2c(cc1C#Cc1ncccc1S(=O)(=O)Nc1noc(C)c1Cl)C(C)(C)OC2 [Example 7, N-(4-Chloro-5-methylisoxazol-3-yl)-2-((3,3,6-trimethyl-1,3-dihydroisobenzofuran-5-yl)ethynyl)pyridine-3-sulfonamide] | 81 | 44 |  |  |  | 57
7 | Cc1cc2c(cc1C#Cc1ncccc1S(=O)(=O)Nc1noc(C)c1C)COC2 [Example 3, N-(4,5-Dimethylisoxazol-3-yl)-2-((6-methyl-1,3-dihydroisobenzofuran-5-yl)ethynyl)pyridine-3-sulfonamide] | 85 | 47 | > 5 | 322 ± 435 | 113 ± 565 | 
8 | Cc1cc2c(cc1C#Cc1ncccc1S(=O)(=O)Nc1onc(C)c1C)C(C)(C)OC2 [Example 8, N-(3,4-Dimethylisoxazol-5-yl)-2-((3,3,6-trimethyl-1,3-dihydroisobenzofuran-5-yl)ethynyl)pyridine-3-sulfonamide] | 40 | 73 | > 5 |  |  | 
9 | Cc1cc2c(cc1C#Cc1ncccc1S(=O)(=O)Nc1onc(C)c1Cl)C(C)(C)OC2 [Example 9, N-(4-Chloro-3-methylisoxazol-5-yl)-2-((3,3,6-trimethyl-1,3-dihydroisobenzofuran-5-yl)ethynyl)pyridine-3-sulfonamide] | 5 | 28 | > 5 |  |  | 
